Data on three compounds can be found in US20240335373A1, “Methods, Systems and Devices for Post-Fabrication Drug Loading” (THE UNIVERSITY OF NORTH CAROLINA AT CHAPEL HILL, priority 2020, published 2024).

Values after ≈ are worked out from the molar mass of the structure shown.

Data set [1] can be described thus: Drug loading of post-loaded SIL 30 diffusion blocks, solvent extraction and HPLC. It counts as physicochemical. To be noted: for Drug Loading / Wt. % Loading: loaded 5 mg/mL in acetone 24 hr. The protocol: Loading. […] . Solutions of 5 mg/mL of drug in acetone were prepared and validated via HPLC. […] Blocks were then divided into an extraction set and a release set.
Extraction. Drug-loaded blocks were extracted using methods previously described in Section 2.6 using acetone as the extraction solvent. Aliquots were collected and analyzed with HPLC. Weight percent loading was determined as the total drug extracted relative to the mass of the dried blocks.
Block types 6.0 and 7.6 mm (n=8 of each type) were fabricated in SIL 30. A solution containing 8.562 mg/mL of 4′-ethynyl-2-fluoro-2′-deoxyadenosine (EFdA) in acetone was prepared and validated via HPLC. Blocks were batch immersed in post-loading solution for up to 24 hr. Blocks were divided into extraction (n=4) and release (n=4) sets. EFdA was extracted from blocks in acetone as previously described and quantified with HPLC. Release blocks were individually immersed in 60 mL of SVF and placed in an incubator at 37° C. Aliquots and analysis were completed using methods previously described. EFdA was quantified with HPLC, eluting at 5.31 min at 265 nm.
A test part described as a diffusion block with dimensions in X, Y, and Z of 10 mm, 20 mm, and 4 mm, respectively, was primarily used. The general flow of the post-loading process is outlined in FIG. 6A. The initial metrics of dimensional and mass measurements were taken for every block used prior to loading or testing. The block was then immersed in a post-loading solution containing a known concentration of the API for a specified duration. The part was removed and measured for swollen metrics. An aliquot of the post-loading solution following part removal was taken for HPLC analysis. The part was then dried in an oven to remove the post-loading solvent, after which the part was measured for dried metrics. These metrics serve as check points to precisely investigate part behavior throughout the post-loading process, specifically dimensional deformations. Once the part was post-loaded it can either be tested for total drug content via an extraction process, outlined in FIG. 6B, or tested for drug release in simulated vaginal fluid (SVF), outlined in FIG. 6C. Aliquots from both processes are taken for HPLC analysis.
. For these samples, metrics were taken and aliquots were analyzed via HPLC on a C18 column with an optimized method. Extraction aliquots and post-loading solution aliquots were diluted in acetonitrile (ACN) at 1:100 while release samples were analyzed as is. Extracted material includes both the incorporated drug (β-estradiol) as well as leachables/extractables. […] .
Blocks were further assessed by quantifying the extracted drug via HPLC. The total amount of drug extracted, weight percent loading and loading efficiency were calculated and averaged, with variation described by % RSD. Overall, a slight decrease in loading metrics was observed as a function of loading order. However, once averaged out, these values yielded minimal variability. Additionally, values shown are in-line with those obtained during the reproducibility study (Section 3.2) for methanol.
Both pre-loaded and post-loaded blocks were extracted in 20 mL of EtOH for 72 hours. Aliquots were taken and analyzed via HPLC. […] . […] Therefore, for the sake of consistency between previous results and subsequently prepared samples, loading values obtained in Round II were used for all calculations.

Data set [2] can be described thus: In vivo PK of EFdA-loaded IVRs in macaques. To be noted: female pigtailed macaques, 28 days. The protocol:
Macaque size (25 mm OD) 3D printed IVRs post-loaded with EFdA at 45 mg/IVR or 62 mg/IVR were administered to female pigtailed macaques and plasma, PBMCs, vagina and rectal fluids, and vaginal and rectal biopsies were collected over 28 days and analyzed for EFdA concentration and EFdA-TP (triphosphorilated EFdA, EFdA-TP) in PBMCs.

Data set [3] is described as follows: In vitro release from drug-loaded blocks or ring sections in simulated vaginal fluid (SVF). It counts as physicochemical. The settings on record: for Drug Release at Zero Order Mass/Day / Drug Release at Zero Order Percent/Day: linear regression from Day 2.
For data set [4] the following is noted: cited from earlier work.
The next data set is described as follows: physchem. To be noted: organic solvent or mixture.
Where [5] appears, read: SIL 30 block 6.21 ± 0.03 mm, 8.562 mg/mL in acetone.
Where [6] appears, read: SIL 30 block 6.21 ± 0.03 mm, 8.562 mg/mL in acetone up to 24 hr.
Where [7] appears, read: SIL 30 block 7.62 ± 0.03 mm, 8.562 mg/mL in acetone.
Where [8] appears, read: SIL 30 block 7.62 ± 0.03 mm, 8.562 mg/mL in acetone up to 24 hr.
[9] abbreviates: SIL 30 block 6.29 ± 0.04 mm, 5 mg/mL in acetone.
Setting [10] is: SIL 30 block 6.29 ± 0.04 mm, 5 mg/mL in acetone 24 hr.
Setting [11] is: SIL 30 block 7.81 ± 0.08 mm, 5 mg/mL in acetone.
Setting [12] is: SIL 30 block 7.81 ± 0.08 mm, 5 mg/mL in acetone 24 hr.

As to `C#C[C@]1(CO)O[C@@H](n2cnc3c(N)nc(F)nc32)C[C@@H]1O` [EFdA, 4′-ethynyl-2-fluoro-2′-deoxyadenosine], in data set [1] (setting [5]), the “Normalized Delta SSA” value is recorded as −150.63 ± 4.00 and the “Normalized Wt. % by S-SSA” value was 81.4 ± 2.26. In data set [1] (setting [6]), this compound gave a Drug of 32.76 ± 0.76 mg and a Loading of 2.41 ± 0.06 Wt. %. Further, in data set [1] (setting [7]), the “Normalized Delta SSA” value is recorded as −195.95 ± 4.41 and the “Normalized Wt. % by S-SSA” value amounted to 99.91 ± 3.67. In data set [1] (setting [8]), this compound yielded a Drug of 36.91 ± 1.18 mg and a Loading of 2.15 ± 0.07 Wt. %. Further, in data set [2] (45 mg/IVR or 62 mg/IVR), the “EFdA levels in tissue and fluid samples” value is reported as “above the known efficacious levels”; the “EFdA-TP levels in PBMCs” value was “above the known efficacious levels”. In addition, the PK levels entry in data set [2] (62 mg vs 45 mg EFdA IVR) was “dose dependent”.
The solubility is the dissolved amount per volume that the medium holds. Turning to `Nc1nc(F)nc2c1ncn2[C@H]1C[C@H](O)[C@@H](CO)O1` [FdA, 2-fluoro-2′-deoxyadenosine], the “Normalized Delta SSA” value is listed as −91.19 ± 7.35 in data set [1] (setting [9]) and −103.29 ± 2.04 in data set [1] (setting [11]). Moreover, the results for the “Normalized Wt. % by S-SSA” value in data set [1] (setting [9]) and in data set [1] (setting [11]) were 47.53 ± 3.10 and 52.82 ± 1.47, respectively. The Drug in data set [1] (setting [10]) stood at 18.95 ± 1.28 mg; in data set [1] (setting [12]) it was 19.38 ± 0.54 mg. Besides, the Loading was found to be 1.43 ± 0.10 Wt. % in data set [1] (setting [10]) and 1.19 ± 0.03 Wt. % in data set [1] (setting [12]). In addition, the “Drug Loading” value in data set [1] (block 0.65 ± 0.01 mm) came out at 2.07 ± 0.06 mg; in data set [1] (block 1.51 ± 0.01 mm) it was 4.07 ± 0.19 mg; in data set [1] (block 2.32 ± 0.02 mm), 6.46 ± 0.17 mg; in data set [1] (block 3.26 ± 0.03 mm), 9.68 ± 0.70 mg; in data set [1] (block 4.28 ± 0.04 mm) it was 14.42 ± 1.21 mg; in data set [1] (block 6.29 ± 0.04 mm), 18.95 ± 1.28 mg. For the same compound, the “Drug Loading” value in data set [1] (block 7.81 ± 0.08 mm) is on record as 19.38 ± 0.54 mg. In addition, the “Wt. % Loading” value is 1.71 ± 0.07 Wt. % in data set [1] (block 0.65 ± 0.01 mm); 1.60 ± 0.07 Wt. % in data set [1] (block 1.51 ± 0.01 mm); 1.46 ± 0.04 Wt. % in data set [1] (block 2.32 ± 0.02 mm); 1.52 ± 0.11 Wt. % in data set [1] (block 3.26 ± 0.03 mm); 1.62 ± 0.14 Wt. % in data set [1] (block 4.28 ± 0.04 mm); 1.43 ± 0.10 Wt. % in data set [1] (block 6.29 ± 0.04 mm). Besides, the “Wt. % Loading” value in data set [1] (block 7.81 ± 0.08 mm) was 1.19 ± 0.03 Wt. %. Further, the release profile entry in data set [3] (all post-loaded SIL 30 block types, SVF) is “linear and sustained release following an initial burst”. In addition, the “Drug Release at Zero Order Mass/Day” value is 406.25 ± 19.80 µg/day in data set [3] (block 2.32 ± 0.02 mm, SVF); 423.43 ± 17.17 µg/day in data set [3] (block 3.26 ± 0.03 mm, SVF); 450.51 ± 16.45 µg/day in data set [3] (block 4.28 ± 0.04 mm, SVF); 453.56 ± 20.13 µg/day in data set [3] (block 6.29 ± 0.04 mm, SVF); 454.52 ± 20.34 µg/day in data set [3] (block 7.81 ± 0.08 mm, SVF). For the same compound, the “Drug Release at Zero Order Percent/Day” value is 6.40 ± 0.20 Percent/Day in data set [3] (block 2.32 ± 0.02 mm, SVF); 3.94 ± 0.06 Percent/Day in data set [3] (block 3.26 ± 0.03 mm, SVF); 2.93 ± 0.03 Percent/Day in data set [3] (block 4.28 ± 0.04 mm, SVF); 2.26 ± 0.01 Percent/Day in data set [3] (block 6.29 ± 0.04 mm, SVF); 1.86 ± 0.04 Percent/Day in data set [3] (block 7.81 ± 0.08 mm, SVF). Also, the “percent burst release normalized by SSA” value in data set [3] (post-loaded SIL 30 blocks, all block distances, normalized by placebo SSA in SVF) is listed as “around 40%”. Further, the “percent burst release plateau” value in data set [3] (post-loaded SIL 30 blocks, larger block distances, SVF, first 24 hrs) is 22%. In addition, the log p in data set [4] is reported as −0.57. The solubility in the data set “physchem” is 9500 µg/mL (≈ 35.3 mM).
Regarding `C[C@]12CC[C@@H]3c4ccc(O)cc4CC[C@H]3[C@@H]1CC[C@@H]2O` [β-Estradiol, β-estradiol], the log p in data set [4] is reported as 3.75.
